Measurements from patent US20240082218A1, “PHARMACEUTICAL COMBINATIONS COMPRISING A KRAS G12C INHIBITOR AND USES OF A KRAS G12C INHIBITOR FOR THE TREATMENT OF CANCERS” (priority 2020, published 2024).
Like-named read-outs stand apart in the source and are kept apart here. Marks after values point to notes of the source that are not given here.

What was measured:
HRAS WT = HRAS WT (Homo sapiens, UniProt P01112); assay: cRAF recruitment 6 h cellular assay; format: cell-based
[1] = test system: advanced solid tumors harboring the KRAS G12C mutation; conditions: patients; preliminary data, trial ongoing
Method: The study is conducted in adult patients with advanced solid tumors who harbor the KRAS G12C mutation. In expansion, advanced (metastatic or unresectable) non-small cell lung cancer patients who harbor the KRAS G12C mutation and who are in the second or third line treatment setting will be enrolled.
In particular, it may be administered at a total daily dose of 400 mg, administered once daily or twice daily. It may also be administered at a total daily dose of 200 mg, administered once daily or twice daily.
It may also be administered at a total daily dose of 600 mg, administered once or twice daily.
TNO155 is administered p.o. QD or BID in a 2 week on/1 week off schedule or continuously.
TNO155 may be administered at a total daily dose ranging from 10 to 80 mg, or from 10 to 60 mg. For example, the total daily dose of TNO155 may be selected from 10, 15, 20, 30, 40, 60 and 80 mg. For example, TNO may be dosed at a total daily dose of 10, 15, 20 or 30 mg.
The total daily dose of TNO155 may be administered continuously, QD (once a day) or BID (twice a day) on QD or BID on a 2 weeks on/l week off schedule. The total daily dose of TNO155 may be administered continuously, QD (once a day) or BID (twice a day) on QD or BID on continuously (i.e. without a drug holiday). […]

KRASG12C [2] = molecular target: T1, KRASG12C (Homo sapiens, UniProt P01116, G12C); assay: In vivo KRASG12C target occupancy in MIA PaCa-2 xenografts; parameters: endogenous in cells; host or cells: MIA PaCa-2 tumour xenografts in mice
Method: KRASG12C inhibition can be assessed by measuring free KRASG12C levels (target occupancy) and other biomarkers in the MAPK signaling pathway, such as decreased levels of phosphorylated ERK1/2 (pERK) and downregulation of DUSP6 mRNA transcript. […] In the less sensitive NCI-H2122 xenografts, orally administered JDQ443 (100 mg/kg QD) achieved approximately 80% KRASG12C inhibition and 90% decrease in DUSP6 mRNA transcript, causing stasis which is the maximum response in this model upon MAPK pathway inhibition.

KRAS G12C_H95Q (GDP) = molecular target: T2, KRAS G12C_H95Q (GDP) (Homo sapiens, UniProt P01116, G12C/H95Q); assay: Covalent rate constants by RapidFire MS; format: binding; conditions: n=2
T2 construct: the cDNA encoding KRAS, NRAS, and HRAS comprised aa 1-169; made in house; host or cells: E. coli BL21(DE3)
Method: (§1) The E. coli expression constructs used in this study were based on the pET system and generated using standard molecular cloning techniques. […] Point mutations were introduced with the QuikChange Lightning Site-Directed Mutagenesis kit (Agilent). All final expression constructs were sequence verified by Sanger sequencing.
(§2) Cell pellets were resuspended in buffer A (20 mM Tris, 500 mM NaCl, 5 mM imidazole, 2 mM TCEP, 10% glycerol, pH 8.0) supplemented with Turbonuclease (Merck) and cOmplete protease inhibitor tablets (Roche). The cells were lysed by three passages through a homogenizer (Avestin) at 800-1000 bar and the lysate clarified by centrifugation at 40000 g for 40 min. The lysate was loaded onto a HisTrap HP 5 ml column (Cytiva) mounted on an ÅKTA Pure 25 chromatography system (Cytiva). Contaminating proteins were washed away with buffer A and bound protein was eluted with a linear gradient to buffer B (buffer A supplemented with 200 mM imidazole). During dialysis O/N the N-terminal His affinity purification tags on the non-tagged and avi-tagged proteins were cleaved off by TEV or HRV3C protease, respectively. The protein solution was re-loaded onto a HisTrap column and the flow through containing the target protein collected. Guanosine 5′-diphosphate sodium salt (GDP, Sigma) or GppNHp-Tetralithium salt (Jena Bioscience) was added to a 24-32× molar excess over protein. […] After 1 hour at room temperature the buffer was exchanged on a PD-10 desalting column (Cytiva) against 40 mM Tris, 200 mM (NH4)2SO4, 0.1 mM ZnCl2, pH 8.0. […] 40 U Shrimp Alkaline Phosphatase (New England Biolabs) was added to GppNHp containing samples only. The sample was then incubated for 1 hour at 5° C. Finally, MgCl2 was added to a concentration of about 30 mM.
(§3) Reactions were stopped at different time points by addition of formic acid to 1%. […] In parallel, compound solubility was assessed by nephelometry and compound concentrations resulting in measurable turbidity were excluded from curve fitting. […]

KRAS G12C_Y96D (GDP) = molecular target: T3, KRAS G12C_Y96D (GDP) (Homo sapiens, UniProt P01116, G12C/Y96D); assay: Covalent rate constants by RapidFire MS; format: binding; conditions: n=3
T3 construct: the cDNA encoding KRAS, NRAS, and HRAS comprised aa 1-169; made in house; host or cells: E. coli BL21(DE3)
Method: as §1, §2, §3

KRAS G12C_Y96C (GDP) = molecular target: T4, KRAS G12C_Y96C (GDP) (Homo sapiens, UniProt P01116, G12C/Y96C); assay: Covalent rate constants by RapidFire MS; format: binding; conditions: n=2
T4 construct: the cDNA encoding KRAS, NRAS, and HRAS comprised aa 1-169; made in house; host or cells: E. coli BL21(DE3)
Method: as §1, §2, §3

KRASG12C [3] = molecular target: T1, KRASG12C; assay: cRAF recruitment 6 h cellular assay; format: cell-based
[4] = test system: Ba/F3 cells expressing FLAG-KRAS G12C/Y96D; assay: Ba/F3 3-day proliferation, Cell titer glo (Example 12); format: cell-based, murine; conditions: Mus musculus
Method: (§4) The parental Ba/F3 cells were cultured in the presence of 5 ng/ml of recombinant murine IL-3 (Life Technologies, #PMC0035).
(§5) The mutant plasmids were transfected into the Ba/F3 WT cells by electroporation with the NEON transfection kit (Invitrogen, #MPK10025).
(§6) Ba/F3 cells are normally dependent on IL-3 to survive and proliferate, however, by expressing oncogenes they are able to switch their dependency from IL-3 to the expressed oncogene. […] Cell number and viability was measured every three days and after seven days the IL-3 withdrawal was completed.
(§7) Treatment was performed on the same day with a Tecan D300e drug dispenser. Viability was detected on the same day of treatment for the start plate (Day 0) and three days post-treatment (Day 3) using the CellTiter-Glo Luminescent Cell Viability Assay (Promega, #G7573) on a Tecan infinitiy M200 Pro reader (Intergration Time 1000 ms).
(§8) To determine the growth, the three days post-treatment (Day 3) readout was normalized to start plate (Day 0). The percentage viability was then calculated by normalizing treated wells to DMSO treated control samples. XLfit was used to make the fitted curve with a Sigmoidal Dose-Response Model (four-parameter curve) (FIG. 7).

[5] = test system: Ba/F3 cells expressing FLAG-KRAS G12C/R68S; assay: as above; format: cell-based, murine; conditions: Mus musculus
Method: as §4, §5, §6, §7, §8

[6] = test system: Ba/F3 cells expressing FLAG-KRAS G12C/Y96C; assay: as above; format: cell-based, murine; conditions: Mus musculus
Method: as §4, §5, §6, §7, §8

[7] = test system: Ba/F3 cells expressing FLAG-KRAS G12C/H95R; assay: as above; format: cell-based, murine; conditions: Mus musculus
Method: as §4, §5, §6, §7, §8

[8] = BaF3, 72 h, 3 days, 4 independent experiments, read-out: GI50 ± St DV

Sequence of HRAS WT (P01112 whole entry): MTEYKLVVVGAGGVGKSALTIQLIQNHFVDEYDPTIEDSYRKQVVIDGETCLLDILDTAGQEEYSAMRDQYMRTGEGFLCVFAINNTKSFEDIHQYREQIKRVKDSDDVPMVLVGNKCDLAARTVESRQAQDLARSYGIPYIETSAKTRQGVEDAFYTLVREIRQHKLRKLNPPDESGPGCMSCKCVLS

`C=CC(=O)N1CC2(CC(n3nc(-c4ccc5c(cnn5C)c4)c(-c4c(Cl)c(C)cc5[nH]ncc45)c3C)C2)C1` (single isomer, unassigned) [Compound A, 1-{6-[(4M)-4-(5-Chloro-6-methyl-1H-indazol-4-yl)-5-methyl-3-(1-methyl-1H-indazol-5-yl)-1H-pyrazol-1-yl]-2-azaspiro[3.3]heptan-2-yl}prop-2-en-1-one] was tested, and the EC50 (HRAS WT) was over 10000 nM, the clinical efficacy [1] was “early signs of clinical efficacy” and the “clinical safety and tolerability” value [1] was “acceptable safety and tolerability profile”. For the same molecule, the inhibition at 30 mg/kg (KRASG12C [2]; MIA PaCa-2 xenografts, 30 mg/kg QD oral) was about 90%, the “KRASG12C TO t1/2” value (KRASG12C [2]; in vivo, MiaPaCa2 model) was about 66 h and the “Second order rate constant (Kinact/KI)” value (KRAS G12C_H95Q (GDP)) was 9500 M⁻¹ s⁻¹. For the same molecule, the “Second order rate constant (Kinact/KI)” value (KRAS G12C_Y96D (GDP)) was 90 M⁻¹ s⁻¹, the “Second order rate constant (Kinact/KI)” value (KRAS G12C_Y96C (GDP)) was 650 M⁻¹ s⁻¹ and the EC50 (KRASG12C [3]) was 20 nM. It also gave a GI50 [4, 8] of over 1000 nM, a GI50 ([4]; BaF3, read-out: GI50) of over 1000 nM and a GI50 [5, 8] of over 1000 nM. For the same molecule, the GI50 ([5]; BaF3, read-out: GI50) was over 1000 nM, the GI50 [6, 8] was over 1000 nM and the GI50 ([6]; BaF3, read-out: GI50) was over 1000 nM. It also gave a GI50 [7, 8] of 24 ± 6 nM and a GI50 ([7]; BaF3, read-out: GI50) of 24 ± 6 nM.
